Assays:
Assay type in all cases: in vivo
[1] = Body weight of POI model mice before modeling, after modeling and after treatment; settings: for Body weight before modeling: D 0, 100 mg/kg/d oral; for Body weight after modeling: D 7, 100 mg/kg/d oral; for Body weight after treatment: D 13, 100 mg/kg/d oral
Protocol: Animal model establishment: A total of 34 C57 female mice (8-week-old) were selected and intraperitoneally injected with the ratio of 120 mg/kg cyclophosphamide (SIGMA) and 30 mg/kg Busulfan (Aladdin) once a day for 1 week at the dose of 0.1 mL/10 g to establish the model of POI.
Grouping: 34 POI model mice were randomly divided into four groups: sodium fumarate (SF) treatment group (n=9), hyodeoxycholic acid (HDCA) treatment group (n=8), sodium fumarate plus hyodeoxycholic acid (mass ratio 1:1) combination (SF+HDCA) treatment group (n=8) and normal saline (Vehicle) group (n=9). Mice in the SF group were given oral administration of SF at the ratio of 100 mg/kg/d body weight, mice in the HDCA group were given oral administration of HDCA at the ratio of 100 mg/kg/d body weight, and mice in the combination group were given oral administration of SF and HDCA at the ratio of 100 mg/kg/d body weight. SF and HDCA were dissolved with 0.9% normal saline when used. Mice in the vehicle group were given the same amount of normal saline orally. All the mice were treated consecutively for 12 days.
Body weight were recorded at three time points, before modeling (at the beginning of treatment), after modeling and after treatment.
Animal model establishment: A total of 24 C57 mice (8-week-old) were selected and intraperitoneally injected with the ratio of 120 mg/kg cyclophosphamide and 30 mg/kg Busulfan once a day for 1 week at the dose of 0.1 mL/10 g to establish the model of POI.
Grouping: 24 POI model mice were randomly divided into four groups: dimethyl fumarate (DMF) treatment group (n=5), hyodeoxycholic acid (HDCA) treatment group (n=6), dimethyl fumarate plus hyodeoxycholic acid (mass ratio=1:1) combination (DMF+HDCA) treatment group (n=7) and normal saline (Vehicle) group (n=6). Mice in the DMF treatment group were orally administrated at the ratio of 100 mg/kg/d body weight. Mice in the HDCA treatment group were given oral administration of HDCA at the ratio of 100 mg/kg/d body weight, and mice in the combination group were given oral administration of DMF and HDCA at the ratio of 100 mg/kg/d body weight. Once daily, DMF and HDCA were dissolved in 0.9% normal saline when used. Mice in normal saline group were given the same amount of normal saline orally every day. The drug was administered for 12 days.
Body weight were recorded at three time points, before modeling (at the beginning of treatment, the 0th day), after modeling (the 7th day) and after treatment (the 13th day).
The body weight of POI model mice of each group was measured before modeling, after modeling and after treatment.

POI mice [2] = assay: Serum estradiol (E2) level in POI mice; settings: for E2: serum, after 12 days 100 mg/kg/d oral
From the text: (§1) Biomarkers mentioned herein, such as follicle stimulating hormone (FSH), estrogen (e.g., E2), and superoxide dismutase (SOD), malondialdehyde (MDA), relative reactive oxygen species (ROS), and lactate dehydrogenase (LDH), etc., can be detected using methods commonly known in the field. Detection methods typically cover methods that quantify the level of a biomarker in a sample (quantitative methods). Which of the following methods are suitable for qualitative and/or quantitative detection of biomarkers is generally known to those skilled in the field. Samples can be conveniently measured, for example for proteins using immunoassays such as ELISA, RIA, etc., which are commercially available.
(§2) After 12 days of administration, half of the mice in each group were sacrificed, and their blood was collected and kept still. The serum was separated after centrifugation at 4500 rpm and stored in a refrigerator at −80° C. for future use to measure levels of follicle stimulating hormone, estrogen, and the indexes of oxidative stress such as superoxide dismutase (SOD) and malondial dehyde (MDA).
as §2, with “kept in” for “kept”, “levals” for “levels”, “malondialdehyde” for “malondial dehyde”

POI mice [3] = assay: Serum malondialdehyde (MDA) level, oxidative stress
From the text: as §1, §2
as §2, with “kept in” for “kept”, “levals” for “levels”, “malondialdehyde” for “malondial dehyde”
(§3) The oxidative stress hypothesis believes that the reduction of antioxidant components in the body leads to the weakening of the ability to remove free radicals, which leads to oxidative damage of biological macromolecules, and the imbalance of cellular oxidative and antioxidant functions, which leads to oxidative stress, and then leads to disease and aging. Oxygen free radicals act on unsaturated fatty acids of lipids to generate lipid peroxides, including malondialdehyde (MDA) and so on. The antioxidant defense system of scavenging free radicals includes superoxide dismutase (SOD) and so on. Recently, oxidative stress has been reported to be associated with ovarian aging and POI in primates. Therefore, this embodiment examined the effects of DMF, HDCA, and DMF+HDCA on oxidative stress in mice with premature ovarian failure, and the results are shown in Table 5, FIGS. 9 to 12.

POI mice [4] = assay: Serum superoxide dismutase (SOD) level, oxidative stress
From the text: as §1, §2
as §2, with “kept in” for “kept”, “levals” for “levels”, “malondialdehyde” for “malondial dehyde”
as §3

POI model mice = assay: Estrous cycle observation by vaginal smear cytology in POI model mice
POI mice [5] = assay: Serum relative reactive oxygen species (ROS) level
From the text: as §1, §3

POI mice [6] = assay: Serum lactate dehydrogenase (LDH) level
From the text: as §1

[7] = serum, POI mice after treatment
[8] = Example 2, during drug administration, FIG. 5B

C[C@H](CCC(=O)O)[C@H]1CC[C@H]2[C@@H]3C[C@H](O)[C@@H]4C[C@H](O)CC[C@]4(C)[C@H]3CC[C@]12C [HDCA, hyodeoxycholic acid, reference compound]
Body weight before modeling ([1]; Example 1 POI mice): 18.79 ± 0.80 g
Body weight after modeling ([1]; Example 1 POI mice): 17.69 ± 1.03 g
Body weight after treatment ([1]; Example 1 POI mice): 17.96 ± 1.20 g
Weight recovery after chemotherapy ([1]; Example 1 POI mice, FIG. 2A): significantly beneficial
Body weight before modeling ([1]; Example 2 POI mice): 18.32 ± 1.61 g
Body weight after modeling ([1]; Example 2 POI mice): 16.31 ± 2.02 g
Body weight after treatment ([1]; Example 2 POI mice): 17.10 ± 2.24 g
Weight recovery after chemotherapy ([1]; Example 2 POI mice, FIG. 2B): significantly beneficial
Serum E2 level compared with the normal saline group (POI mice [2]; Example 1, FIG. 7): tendency to increase
Serum E2 level compared with the normal saline group (POI mice [2]; Example 2, FIG. 8, not statistically significant): certain tendency to decrease
E2 (POI mice [2]; Example 1 POI mice): 49.69 ± 7.11 pg/mL
E2 (POI mice [2]; Example 2 POI mice): 42.96 ± 14.28 pg/mL
MDA activity compared with the normal saline group (POI mice [3]; FIG. 10, no significant difference): reduced to some extent
MDA (POI mice [3]; [7]): 2.86 ± 4.39 nmol/mL
Activity of SOD compared with the normal saline group (POI mice [4]; FIG. 9, difference not significant): increased
SOD (POI mice [4]; [7]): 14.59 ± 5.65 U/mL
Effect on mice with premature ovarian failure (conclusion from estrous cycle) (POI model mice; Example 2): preventive and therapeutic effects
Average rate of diestrum (D) in estrous cycle (POI model mice; [8]): 52.08%
Average rate of estrous (E) stage in estrous cycle (POI model mice; [8]): 6.25%
Average rate of metestrum (M) in estrous cycle (POI model mice; [8]): 12.50%
Average rate of proestrous (P) in estrous cycle (POI model mice; [8]): 29.17%
Number of mice with estrous cycle recovered (POI model mice; Example 2, 12 days observation, DMF n=5, HDCA n=6, DMF and HDCA n=7): 3 mice
ROS levels compared with the normal saline group (POI mice [5]; FIG. 11): significantly reduced
ROS (POI mice [5]; relative ROS level in serum, POI mice after treatment): 4.589 ± 0.599
Activity of LDH compared with the normal saline group (POI mice [6]; FIG. 12): reduced to some extent
LDH (POI mice [6]; [7]): 2821.58 ± 318.30 U/mL
